Measurements reported in patent US20200353027A1, “A LILAC GINKGO BRICK TEA WITH LIPID LOWERING AND LIVER PROTECTION ACTIVITIES AND A METHOD OF PREPARING THE SAME” (SHAANXI UNIVERSITY OF SCIENCE AND TECHNOLOGY, priority 2019, published 2020).

Test system: mice given ethanol alcohol (alcohol's damage to the liver)
Experiment: Liver protection in mice given ethanol alcohol
Assay type: in vivo, Kunming mice
Conditions: Tiopronin 50 mg/kg/day, ethanol 3 g/kg/day, after 25 days, blood
Method: To study the liver protection effect of the Lilac Ginkgo Brick Tea of Example 1, the following experiments were conduct.
Male Kunming mice, 50 SPF grades, 5 weeks old, 30-35 g, were randomly divided into Blank Group, Control Group, Tiopronin Positive Control Group, Low Dosage Group, and High Dosage Group. 100 g of Lilac Ginkgo Brick Tea was boiled in 1 L water, filtered, and concentrated to 50 mL concentrated Lilac Ginkgo Brick Tea solution. Blank Group and Control Group were given water and regular food; Tiopronin Group was given 50 mg/kg/day Tiopronin; and Low Dosage Group and High Dosage Group were given 20 mL/kg/day and 50 mL/kg/day concentrated Lilac Ginkgo Brick Tea solution, respectively, and regular food. Control Group, Tiopronin Positive Control Group, Low Dosage Group, and High Dosage Group were given 3 g/kg/day (0.01 mL/g) ethanol alcohol. Blank Group was given equal volume water. After 25 days, the mice were fasted for 2 hours, and blood samples were taken to determine alanine aminotransferase (ALT), aspartate aminotransferase (AST), and triglyceride (TG) levels.

In the case of `CC(S)C(=O)NCC(=O)O` (stereo not drawn) [Tiopronin], the “ALT (alanine aminotransferase)” value is reported as 64.80 ± 10.47 U/L, the “AST (aspartate aminotransferase)” value is reported as 140.39 ± 20.92 U/L and the “TG (triglyceride)” value is reported as 1.295 ± 0.43 mmol/L.
